Measurements published in ChEMBL document CHEMBL1201862, “PubChem BioAssay data set” (2004).
Where “and” joins values, the source holds several entries; their conditions need not be identical. Equal entries are not always repeated.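 96-well plates; 48 h exposure; 5 concentrations. Endpoints by linear interpolation between flanking doses. Not reached: highest tested concentration assigned. GI50 = concentration required for 50% inhibition of growth.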 Calls of active or inactive are those of the source. No stated cut-off is given here; in the data, active = GI50 up to about 1.1 µM and inactive = higher.

Columns and labels:
Experiment in all cases: NCI tumour cell line growth inhibition, 48 h
LOX IMVI = system: LOX IMVI
RXF 393 = system: RXF 393
HCC 2998 = system: HCC 2998
COLO 205 = system: COLO 205
SW-620 = system: SW-620
CCRF-CEM = system: CCRF-CEM
HT-29 = system: HT-29
HCT-15 = system: HCT-15
HOP-92 = system: HOP-92
SK-MEL-28 = system: SK-MEL-28
ACHN = system: ACHN
OVCAR-8 = system: OVCAR-8
SF-295 = system: SF-295
HCT-116 = system: HCT-116
NCI-H23 = system: NCI-H23
Hs-578T = system: Hs-578T
Malme-3M = system: Malme-3M
SR = system: SR
HL-60 = system: HL-60
T47D = system: T47D

## CC(=O)c1c(-c2cccc3ccccc23)c(C#N)c(=S)n(C2OC(CO)C(O)C(O)C2O)c1C (stereo not given)
LOX IMVI
  GI50: > 100 µM (inactive)
RXF 393
  GI50: 83.6 µM (inactive)
HCC 2998
  GI50: > 100 µM (inactive)
COLO 205
  GI50: > 100 µM (inactive)
SW-620
  GI50: > 100 µM (inactive)
CCRF-CEM
  GI50: 56 µM (inactive) and 51.4 µM (inactive)
HT-29
  GI50: > 100 µM (inactive)
HCT-15
  GI50: > 100 µM
HOP-92
  GI50: 56.8 µM (inactive)
SK-MEL-28
  GI50: > 100 µM (inactive)
ACHN
  GI50: > 100 µM (inactive)
OVCAR-8
  GI50: > 100 µM (inactive)
SF-295
  GI50: > 100 µM (inactive)
HCT-116
  GI50: > 100 µM (inactive)
NCI-H23
  GI50: > 100 µM (inactive) and 52.2 µM (inactive)
Hs-578T
  GI50: > 100 µM (inactive)

## CCOC(=O)NC1CC2CCC1(OC)C=C2C (stereo not given)
LOX IMVI
  GI50: > 100 µM (inactive)
RXF 393
  GI50: > 100 µM (inactive)
Malme-3M
  GI50: > 100 µM (inactive)
HCC 2998
  GI50: > 100 µM (inactive)
SR
  GI50: > 100 µM (inactive)
COLO 205
  GI50: > 100 µM (inactive)
SW-620
  GI50: > 90.6 µM (inactive)
CCRF-CEM
  GI50: > 100 µM (inactive)
HT-29
  GI50: > 100 µM (inactive)
HCT-15
  GI50: > 100 µM
HOP-92
  GI50: > 100 µM (inactive)
HL-60
  GI50: > 100 µM (inactive)
SK-MEL-28
  GI50: > 100 µM (inactive)
ACHN
  GI50: > 100 µM (inactive)
OVCAR-8
  GI50: > 100 µM (inactive)
SF-295
  GI50: > 100 µM (inactive)
HCT-116
  GI50: > 100 µM (inactive)
NCI-H23
  GI50: > 100 µM (inactive)

## CCOc1cc(NC(C)=O)ccc1C(=O)NN1C(=O)/C(=C/c2cc(OC)c(OC)c(OC)c2)N=C1c1ccccc1
LOX IMVI
  GI50: > 100 µM (inactive)
Malme-3M
  GI50: 53.5 µM (inactive)
HCC 2998
  GI50: > 100 µM (inactive)
SR
  GI50: > 100 µM (inactive)
COLO 205
  GI50: > 100 µM (inactive)
SW-620
  GI50: > 100 µM (inactive)
CCRF-CEM
  GI50: > 100 µM (inactive)
HT-29
  GI50: > 100 µM (inactive)
HCT-15
  GI50: > 100 µM
HOP-92
  GI50: 23 µM (inactive)
HL-60
  GI50: > 100 µM (inactive)
SK-MEL-28
  GI50: > 100 µM (inactive)
ACHN
  GI50: > 100 µM (inactive)
OVCAR-8
  GI50: 63.5 µM (inactive)
SF-295
  GI50: > 100 µM (inactive)
HCT-116
  GI50: > 100 µM (inactive)
NCI-H23
  GI50: > 100 µM (inactive)
Hs-578T
  GI50: > 100 µM (inactive)

## CCNC(C)Cc1ccccc1 (stereo not given)
LOX IMVI
  GI50: > 100 µM (inactive)
RXF 393
  GI50: > 100 µM (inactive)
Malme-3M
  GI50: > 100 µM (inactive)
HCC 2998
  GI50: > 100 µM (inactive)
SR
  GI50: > 100 µM (inactive)
COLO 205
  GI50: > 100 µM (inactive)
SW-620
  GI50: > 100 µM (inactive)
CCRF-CEM
  GI50: > 100 µM (inactive)
HT-29
  GI50: > 100 µM (inactive)
HCT-15
  GI50: > 100 µM
HOP-92
  GI50: > 100 µM (inactive)
HL-60
  GI50: > 100 µM (inactive)
SK-MEL-28
  GI50: > 100 µM (inactive)
ACHN
  GI50: > 100 µM (inactive)
OVCAR-8
  GI50: > 100 µM (inactive)
SF-295
  GI50: > 100 µM (inactive)
HCT-116
  GI50: > 100 µM (inactive)
NCI-H23
  GI50: > 100 µM (inactive)

## N[C@@H]1C[C@H](N)c2c(Cl)sc(Cl)c21
LOX IMVI
  GI50: > 100 µM (inactive)
RXF 393
  GI50: > 100 µM (inactive)
HCC 2998
  GI50: > 100 µM (inactive)
SR
  GI50: > 100 µM (inactive)
COLO 205
  GI50: > 100 µM (inactive)
SW-620
  GI50: > 100 µM (inactive)
CCRF-CEM
  GI50: > 100 µM (inactive)
T47D
  GI50: > 100 µM (inactive)
HCT-15
  GI50: > 100 µM
HOP-92
  GI50: > 100 µM (inactive)
SK-MEL-28
  GI50: > 100 µM (inactive)
ACHN
  GI50: > 100 µM (inactive)
OVCAR-8
  GI50: > 100 µM (inactive)
SF-295
  GI50: > 100 µM (inactive)
HCT-116
  GI50: > 100 µM (inactive)
NCI-H23
  GI50: > 100 µM (inactive)

## O=c1[nH]c2ccsc2c(=O)n1COCc1ccccc1
LOX IMVI
  GI50: > 100 µM (inactive)
RXF 393
  GI50: > 100 µM (inactive)
Malme-3M
  GI50: > 100 µM (inactive)
HCC 2998
  GI50: > 100 µM (inactive)
SR
  GI50: > 100 µM (inactive)
COLO 205
  GI50: > 100 µM (inactive)
SW-620
  GI50: > 100 µM (inactive)
CCRF-CEM
  GI50: > 100 µM (inactive)
HT-29
  GI50: > 100 µM (inactive)
HCT-15
  GI50: > 100 µM
HOP-92
  GI50: 79.8 µM (inactive)
HL-60
  GI50: > 100 µM (inactive)
SK-MEL-28
  GI50: > 100 µM (inactive)
ACHN
  GI50: > 100 µM (inactive)
OVCAR-8
  GI50: > 100 µM (inactive)
SF-295
  GI50: > 100 µM (inactive)
HCT-116
  GI50: > 100 µM (inactive)
NCI-H23
  GI50: > 100 µM (inactive)
Hs-578T
  GI50: > 100 µM (inactive)

## CN(C)CCNC(=O)c1cccc2c(NCC(=O)O)c3ccccc3nc12
LOX IMVI
  GI50: 4.97 µM (inactive)
Malme-3M
  GI50: 11 µM (inactive)
SR
  GI50: 1.36 µM (inactive)
COLO 205
  GI50: 5.21 µM (inactive)
SW-620
  GI50: 6.62 µM (inactive)
CCRF-CEM
  GI50: 36 µM (inactive)
HT-29
  GI50: 3.07 µM (inactive)
HCT-15
  GI50: 10.1 µM
HOP-92
  GI50: 8.04 µM (inactive)
HL-60
  GI50: > 100 µM (inactive)
SK-MEL-28
  GI50: 20.6 µM (inactive)
ACHN
  GI50: 5.82 µM (inactive)
OVCAR-8
  GI50: 4.61 µM (inactive)
SF-295
  GI50: 10.9 µM (inactive)
HCT-116
  GI50: 4.67 µM (inactive)
NCI-H23
  GI50: 15.2 µM (inactive)
Hs-578T
  GI50: 18.5 µM (inactive)

## Cc1noc(/N=C2\C=C(Nc3onc(C)c3C)C(=O)c3ccccc32)c1C
LOX IMVI
  GI50: 11 µM (inactive)
RXF 393
  GI50: > 100 µM (inactive)
Malme-3M
  GI50: > 100 µM (inactive)
HCC 2998
  GI50: > 100 µM (inactive)
SR
  GI50: 24.3 µM (inactive)
COLO 205
  GI50: > 100 µM (inactive)
SW-620
  GI50: > 100 µM (inactive)
CCRF-CEM
  GI50: > 100 µM (inactive)
HT-29
  GI50: > 100 µM (inactive)
HCT-15
  GI50: > 100 µM
HOP-92
  GI50: > 100 µM (inactive)
HL-60
  GI50: 18.7 µM (inactive)
SK-MEL-28
  GI50: > 100 µM (inactive)
ACHN
  GI50: > 100 µM (inactive)
OVCAR-8
  GI50: 16 µM (inactive)
SF-295
  GI50: > 100 µM (inactive)
HCT-116
  GI50: 95.5 µM (inactive)
NCI-H23
  GI50: 27.5 µM (inactive)

## CC1=CC(=O)/C(=C/NC(=S)c2ccncc2)C(=O)O1
LOX IMVI
  GI50: > 100 µM (inactive)
RXF 393
  GI50: > 100 µM (inactive)
Malme-3M
  GI50: 83.2 µM (inactive)
HCC 2998
  GI50: > 100 µM (inactive)
SR
  GI50: > 100 µM (inactive)
COLO 205
  GI50: > 100 µM (inactive)
SW-620
  GI50: > 100 µM (inactive)
CCRF-CEM
  GI50: > 100 µM (inactive)
HT-29
  GI50: > 100 µM (inactive)
HCT-15
  GI50: > 100 µM
HOP-92
  GI50: > 100 µM (inactive)
HL-60
  GI50: > 100 µM (inactive)
SK-MEL-28
  GI50: > 100 µM (inactive)
ACHN
  GI50: > 100 µM (inactive)
OVCAR-8
  GI50: > 100 µM (inactive)
SF-295
  GI50: > 100 µM (inactive)
HCT-116
  GI50: > 100 µM (inactive)
NCI-H23
  GI50: > 100 µM (inactive)
Hs-578T
  GI50: > 100 µM (inactive)

## CC(=O)OCC1OC(n2cc([N+](=O)[O-])c(=O)[nH]c2=O)C(OC(C)=O)C(OC(C)=O)C1OC(C)=O (stereo not given)
LOX IMVI
  GI50: > 100 µM (inactive)
RXF 393
  GI50: 76 µM (inactive)
Malme-3M
  GI50: > 100 µM (inactive)
HCC 2998
  GI50: > 100 µM (inactive)
SR
  GI50: > 100 µM (inactive)
COLO 205
  GI50: > 100 µM (inactive)
SW-620
  GI50: > 100 µM (inactive)
CCRF-CEM
  GI50: > 100 µM (inactive)
HT-29
  GI50: > 100 µM (inactive)
HCT-15
  GI50: > 100 µM
HOP-92
  GI50: > 100 µM (inactive)
HL-60
  GI50: > 100 µM (inactive)
SK-MEL-28
  GI50: > 100 µM (inactive)
ACHN
  GI50: > 100 µM (inactive)
OVCAR-8
  GI50: > 100 µM (inactive)
SF-295
  GI50: > 100 µM (inactive)
HCT-116
  GI50: > 100 µM (inactive)
NCI-H23
  GI50: > 100 µM (inactive)

## CCOC(=O)Cc1csc2[n+]1C(=O)/C(=C/c1cccc(OC)c1O)S2
LOX IMVI
  GI50: 51.8 µM (inactive)
HCC 2998
  GI50: 32.2 µM (inactive)
COLO 205
  GI50: 78.5 µM (inactive)
SW-620
  GI50: > 100 µM (inactive)
HT-29
  GI50: 39 µM (inactive)
T47D
  GI50: 36.3 µM (inactive)
HCT-15
  GI50: 42.4 µM
HOP-92
  GI50: 93.8 µM (inactive)
HL-60
  GI50: 45.8 µM (inactive)
SK-MEL-28
  GI50: 84.9 µM (inactive)
ACHN
  GI50: 69.5 µM (inactive)
OVCAR-8
  GI50: 52.6 µM (inactive)
SF-295
  GI50: 73.5 µM (inactive)
HCT-116
  GI50: 45.5 µM (inactive)
NCI-H23
  GI50: 33.7 µM (inactive)

## CC(=O)N/C=C/c1cc(O)ccc1O
LOX IMVI
  GI50: 30.1 µM (inactive)
RXF 393
  GI50: 31.7 µM (inactive)
Malme-3M
  GI50: > 44.6 µM (inactive)
HCC 2998
  GI50: 50.8 µM (inactive)
SR
  GI50: 22 µM (inactive)
COLO 205
  GI50: 29.1 µM (inactive)
SW-620
  GI50: 13.9 µM (inactive)
CCRF-CEM
  GI50: 25.3 µM (inactive)
HT-29
  GI50: 32.1 µM (inactive)
HCT-15
  GI50: 40.8 µM
HOP-92
  GI50: 18.7 µM (inactive)
HL-60
  GI50: 10.1 µM (inactive)
SK-MEL-28
  GI50: 32.8 µM (inactive)
ACHN
  GI50: 18.9 µM (inactive)
OVCAR-8
  GI50: 45.7 µM (inactive)
SF-295
  GI50: 32.3 µM (inactive)
HCT-116
  GI50: 32.5 µM (inactive)
NCI-H23
  GI50: 34.4 µM (inactive)
